{"source": "paper PMC11024869", "about": "“The activity of antimicrobial peptoids against multidrug-resistant ocular pathogens” (Contact lens & anterior eye : the journal of the British …, 2024)", "key": {"[1]": {"tested_on": "human corneal epithelial cells", "assay": "Cytotoxicity (MTT) to corneal epithelial cells", "format": "cell-based", "protocol": "Cytotoxicity to corneal epithelial cells was assessed for peptoids TM1, TM5 and TM9 using previously published methods and FDA guidelines. These peptides represent structurally diverse types (Table 2) and had different abilities to cause hemolysis of red blood cells (Fig. 1 and Table 3). Corneal cells were seeded on 96 well plate (GreinerBio One, Frickenhauser, Germany) incubated in 5 % CO2 at 37°C and grown to 80 % confluence in Dulbecco’s modified Eagle’s medium (DMEM) (Sigma-Aldrich, Irvine, UK). They were then exposed to twofold dilutions of each peptoid at concentrations ranging from 500 to 1.95 μg mL^−1 for 24 h at 37°C. An MTT (3-(4,5-dimethylthiazol-2yl)-2,5-diphenyltetrazolium bromide; Sigma-Aldrich) working solution of 0.5 mg mL^−1 was dissolved in DMEM, 100–200 μL was dispensed into each well and incubated for 4 h at 37°C. Following incubation, MTT was replaced by dimethyl sulfoxide (DMSO, Sigma Aldrich) to dissolve the formazan crystals formed by viable cells. Absorbance of this solution was measured at OD570nm. The absorbance is directly proportional to the number of viable cells. The normalized absorbance was calculated to determine number of viable cells using the following formula: %Cytotoxicity=(Absorbance of experiment well)−mean(absorbance of control well)/mean(Absorbance of positive control well)⋆100\nData are also presented as the concentration of peptoids that caused 10 % or 50 % cytotoxicity to human corneal epithelial cells.\nThe geometric mean is the nth root of the multiplied numbers, where n is the total number of data values. A similar formula was used to calculate the selectivity ratio, but by using the concentration of peptoid that caused 10 % hemolysis."}, "S. aureus strains": {"tested_on": "S. aureus strains", "format": "cell-based, Staphylococcus aureus", "conditions": "summary over five S. aureus strains in text", "excerpt": "(§2) The S. pneumoniae strains used were SP04, SP06 and SP07 [46] and Streptococcus gallolyticus SV06 (all isolated from eyes of contact lens wearers during adverse events); P. aeruginosa PAO1 (which was originally isolated from a wound, and is an invasive strain containing the gene exoS) as well as isolates from microbial keratitis, PA 235 (invasive strain containing exoS), PA216 (a cytotoxic strain containing exoU), PA219 (cytotoxic strain containing exoU), PA 233 (cytotoxic strain containing exoU), with various susceptibilities to antibiotics were also used [14]. C. albicans ATCC 10231, a yeast, isolated from case of a human bronchomycosis, was also evaluated.\n(§3) The peptoids’ minimum inhibitory and bactericidal concentrations (MIC and MBC) were determined using micro broth dilution methods as previously described with slight modifications, [26, 39, 49, 50], and without using acetic acid and bovine serum albumin [39]. Briefly, bacteria or yeast were suspended in Muller Hinton broth (MHB, Oxoid, Thermo Fisher Scientific, Thebarton, SA, Australia) at 0.1 OD660nm, which was equivalent to 1x10^8 colony forming units (CFU) mL^−1. This suspension was further diluted to achieve 5x10^6 CFU mL^−1. […] Post incubation, the number of CFUs on the agar plates was counted."}, "streptococci": {"tested_on": "streptococci", "assay": "MIC micro broth dilution, summary over streptococci", "format": "cell-based", "excerpt": "as §2, §3"}, "P aeruginosa 216": {"tested_on": "P aeruginosa 216", "protocol": "(§1) Melimine was used as positive control as it is a cationic antimicrobial peptide that can be hydrolysed by proteases. The Expasy peptide cutter module (https://web.expasy.org/peptide_cutter/) was accessed to predict which proteases might digest melimine. The susceptibility of the antimicrobial compounds to digestion by two proteases expected to digest melimine, Proteinase K (120 unit mL^−1 in 20 mM Tris HCl, pH 7.4; New England Bio Labs, Australia) and Trypsin (10,350 BAFE units/mg in 50 mM borate buffer, pH 8.5; Thermo Scientific products, Australia), was tested. The peptoids and melimine were incubated with each protease at the ratio (w/w) of 1:100 in PBS (pH 7.4) for 24 h at 37 °C. After incubation, the peptoid/melimine + protease solutions were tested for their activity against P. aeruginosa 216 which was grown overnight in TSB at 37 °C. Bacterial cells were washed three times in PBS and then resuspended in MHB OD660nm of 0.1 (equal to 1x10^8 CFU mL^−1. The bacterial suspension was then diluted in MHB to a final working concentration of 5x10^6 cells mL^−1. The diluted bacterial suspension was subsequently added to the wells containing the peptoids/melimine + protease solution and incubated for 24 h at 37 °C. Peptoids/melimine solutions alone (no proteases) were used as a positive control, while protease solutions without the peptoids/melimine were used as a negative control. Post incubation, to inhibit the activity of the proteases, the bacterial suspensions were heated at 55 °C for 10 min in a water bath. After the heating step, the absorbance of the suspensions was measured at OD660nm."}, "Proteinase K": {"target": "Proteinase K (Parengyodontium album, UniProt P06873)", "sequence (P06873 106-384)": "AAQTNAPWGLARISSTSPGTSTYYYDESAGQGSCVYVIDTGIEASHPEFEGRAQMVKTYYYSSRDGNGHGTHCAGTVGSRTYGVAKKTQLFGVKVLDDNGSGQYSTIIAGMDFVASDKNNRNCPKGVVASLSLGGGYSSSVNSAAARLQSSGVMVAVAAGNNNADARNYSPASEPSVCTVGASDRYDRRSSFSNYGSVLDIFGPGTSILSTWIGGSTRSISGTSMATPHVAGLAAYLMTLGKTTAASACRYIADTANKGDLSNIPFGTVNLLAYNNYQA", "protocol": "as §1"}, "Trypsin": {"target": "T1, Trypsin (Bos taurus, UniProt P00760)", "T1 sequence (P00760 24-246)": "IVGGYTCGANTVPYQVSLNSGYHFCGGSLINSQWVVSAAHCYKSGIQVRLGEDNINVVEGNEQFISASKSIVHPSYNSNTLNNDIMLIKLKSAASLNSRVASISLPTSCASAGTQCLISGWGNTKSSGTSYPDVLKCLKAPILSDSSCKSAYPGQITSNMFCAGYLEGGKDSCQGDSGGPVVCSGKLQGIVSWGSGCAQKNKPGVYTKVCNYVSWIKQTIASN", "protocol": "as §1"}, "[2]": {"conditions": "incubated with protease at ratio (w/w) 1:100 in PBS pH 7.4, 24 h 37 °C, then P aeruginosa 216 in MHB 24 h 37 °C, OD660nm"}}, "note": "Where two headings read alike, the source gives them in different places. Non-standard residues stand in square brackets, D forms with d. Residues, ends and D or L forms follow the SMILES beside them. Nspe(4-Br) = C[C@H](NCC(=O)O)c1ccc(Br)cc1; Nspe = C[C@H](NCC(=O)O)c1ccccc1; NDecylGly = CCCCCCCCCCNCC(=O)O; Nlys = NCCCCNCC(=O)O"}
{"smiles": "C[C@@H](c1ccccc1)N(CC(N)=O)C(=O)CN(C(=O)CN(CCCCN)C(=O)CN(C(=O)CN(C(=O)CN(CCCCN)C(=O)CN(C(=O)CN(C(=O)CN(CCCCN)C(=O)CN(C(=O)CN(C(=O)CNCCCCN)[C@@H](C)c1ccccc1)[C@@H](C)c1ccccc1)[C@@H](C)c1ccccc1)[C@@H](C)c1ccccc1)[C@@H](C)c1ccccc1)[C@@H](C)c1ccccc1)[C@@H](C)c1ccccc1", "note": "[TM1] (H-[Nlys][Nspe][Nspe][Nlys][Nspe][Nspe][Nlys][Nspe][Nspe][Nlys][Nspe][Nspe]-NH2)", "values": [{"measurement": "HCE CC10", "setting": "[1]; concentration causing 10 % cytotoxicity to human corneal epithelial cells, MTT, 24 h 37°C", "value": 1, "unit": "µM"}, {"measurement": "HCE CC50", "setting": "[1]; concentration causing 50 % cytotoxicity to human corneal epithelial cells, MTT, 24 h 37°C", "value": 10, "unit": "µM"}, {"measurement": "cytotoxicity to human corneal epithelial cells relative to MIC", "setting": "[1]; result in words", "value": "cytotoxic to human corneal epithelial cells at or below their MICs"}, {"measurement": "SR HCE (ratio CC10 to geometric mean MIC)", "setting": "[1]; selectivity ratio", "value": 0.3}, {"measurement": "TI HCE (ratio CC50 to geometric mean MIC)", "setting": "[1]; therapeutic index", "value": 3}, {"measurement": "MIC among S. aureus", "setting": "S. aureus strains", "value": "≤ 9.4", "unit": "µM"}, {"measurement": "MIC against other streptococci", "setting": "streptococci", "value": "≤ 8.6", "unit": "µM"}]}
{"smiles": "C[C@@H](c1ccc(Br)cc1)N(CC(=O)N(CCCCN)CC(=O)N(CC(=O)N(CC(=O)N(CCCCN)CC(N)=O)[C@@H](C)c1ccc(Br)cc1)[C@@H](C)c1ccc(Br)cc1)C(=O)CN(C(=O)CNCCCCN)[C@@H](C)c1ccc(Br)cc1", "note": "[TM14] (H-[Nlys][Nspe(4-Br)][Nspe(4-Br)][Nlys][Nspe(4-Br)][Nspe(4-Br)][Nlys]-NH2)", "values": [{"measurement": "MIC, No protease", "setting": "P aeruginosa 216; 216, 24 h", "value": "7.8 (5.8) μg mL^−1"}, {"measurement": "MIC after Proteinase K", "setting": "Proteinase K; pH 7.4", "value": "7.8 (5.8) μg mL^−1"}, {"measurement": "MIC after Trypsin", "setting": "Trypsin; pH 7.4", "value": "7.8 (5.8) μg mL^−1"}, {"measurement": "MICs against all strains", "setting": "all strains", "value": "≤ 12.7", "unit": "µM"}]}
{"smiles": "CCCCCCCCCCNCC(=O)N(CCCCN)CC(=O)N(CC(=O)N(CC(=O)N(CCCCN)CC(=O)N(CC(=O)N(CC(=O)N(CCCCN)CC(N)=O)[C@@H](C)c1ccccc1)[C@@H](C)c1ccccc1)[C@@H](C)c1ccccc1)[C@@H](C)c1ccccc1", "note": "[TM18] (H-[NDecylGly][Nlys][Nspe][Nspe][Nlys][Nspe][Nspe][Nlys]-NH2)", "values": [{"measurement": "MIC, No protease", "setting": "P aeruginosa 216; P aeruginosa 216 in MHB, 24 h 37 °C, OD660nm, compound alone", "value": "15 (12) μg mL^−1"}, {"measurement": "MIC after Proteinase K", "setting": "Proteinase K; [2]", "value": "15 (12) μg mL^−1"}, {"measurement": "MIC after Trypsin", "setting": "Trypsin; [2]", "value": "15 (12) μg mL^−1"}]}
